From patent US20250195412A1, “PHARMACEUTICAL FORMULATIONS OF R-KETAMINE” (priority 2022, published 2025)
In brackets after ≈: the same amount, converted by molar mass. Several values for one entry are separate records, joined by “and”; a condition that tells them apart may be missing. Equal values may be shown once. Entries after “also recorded” stand apart in the source; their conditions may differ.

Experiments:
[1] = Orientative stability examination of phosphate-buffered formulation, room temperature storage; assay type: physicochemical; conditions: 60 mg/mL in phosphate buffer pH 5.8, room temperature, two weeks
[2] = Cosolvent screening: assay of filtered sample by HPLC; assay type: physicochemical
Description: (§1) For cosolvent screening, a set of possible candidates was identified. Specifically, 5% sulfobutyl-ether-β-cyclodextrin (SBE7), polyethylene glycol 400 (PEG 400), glycerol, propylene glycol, and 5% polysorbate 80 were to be screened at pH 5 and 6. Unless otherwise specified, cosolvents were screened at 20% and 50% (m/V). As a control, the solubility of R-ketamine in water was studied at pH 5 and 6.
(§2) The test solution consisting of water for injection. The respective cosolvent was prepared and the active substance was dissolved to a nominal concentration of 100 mg/ml (equaling 86.96 mg/ml free base). The pH was then adjusted to pH 5 with 1N NaOH and a sample was obtained under filtration (0.22 μm). Thereafter, the pH was further increased to pH 6 and another sample was taken (also filtered). Both samples were analyzed for assay and tonicity by HPLC and freezing point depression.
(§3) • Batch size: 90 g/pH set at end of compounding (1N NaOH/1N HCl)

[3] = Cyclodextrin inclusion: API content of filtered solution by HPLC; assay type: physicochemical; conditions: nominal 100 mg/ml (86.96 mg/ml free base)
Description: (§4) The effect of hydroxypropyl β-cyclodextrin (HPB) on the solubility of R-ketamine at different pH values was investigated. Varied factors were pH of the solution and the concentration of HPB. Response factors were tonicity, which was determined by freezing point depression, and API content, which was measured by HPLC, of a filtered (0.22 μm) solution.
(§5) After dissolving the active ingredient (100 mg/ml, 86.96 mg/ml free base), a defined amount of HPB was added. After complete solution of the two components, the target pH was adjusted with sodium hydroxide solution (1 M). The resulting solution was filtered through a syringe filter (0.22 μm) and analyzed by HPLC and freezing point depression. A separate protocol was prepared for each individual experiment.

[4] = Phosphate buffer: content of filtered sample by HPLC, visual precipitation; assay type: physicochemical
Description: (§6) The ingredients for a 20 mM buffer and the appropriate amount of R-ketamine HCl (60 mg/ml, equaling 52.2 mg/ml free base) were weighed together and diluted in water for injection. Subsequently, the pH was adjusted, e.g. to 5.2. After filling up to the target volume, the mixture was stirred for a defined time and a sample was obtained under filtration (0.22 μm). This sample was analyzed for content by HPLC and for tonicity by freezing point depression.
(§7) Based on the previous results from the citrate buffer series experiment, the experiments with the phosphate buffer could be limited to pH 5.8. The nominal concentrations 60 and 70 mg/ml were investigated.
(§8) The solution was prepared and tested as described for the citrate buffer.

[5] = pH 5.5
[6] = Citrate buffer: content of filtered sample by HPLC, visual precipitation; assay type: physicochemical
Description: (§9) One finding from the previous Examples was that there is a range between pH 5 and 6 in which 60 mg/ml API can be dissolved. Strong precipitation of the free base only occurs above a pH of 5.9 according to the observation. Based on this observation, it was decided to investigate two compendial buffer systems (citrate and phosphate buffer) for their ability to hold 60 mg/ml of R-ketamine in solution and stabilize the formulation against pH shifts. Another change was that the pH adjustment was done with 0.15 N NaOH instead of 1 N NaOH in the following experiments. This change was underdone because there were concerns that the very alkaline microenvironment around the drops of sodium hydroxide solution would lead to the formation of flakes that were difficult to dissolve.
as §6

[7] = Citrate buffer: tonicity by freezing point depression; assay type: physicochemical
Description: as §9, §6

[8] = pH dependence of solubility / precipitation of the free base in water; assay type: physicochemical
Description: From pH 5.5, the free base consequently precipitates, if this is not prevented by the addition of suitable excipients.
as §9
The solubility of R-ketamine is strongly pH dependent. In the acidic pH range, the active ingredient is readily soluble, while precipitation occurs at pH values greater than 5.7-5.9. A careful choice of formulation parameters allows the requirements of the application route to be reconciled with the dissolution behavior of the active ingredient. The way in which the pH is adjusted also has a major influence. By using low-concentration alkalis, the formation of highly alkaline microenvironments around the dropping point could be avoided. This prevents the formation of active ingredient flocs that are difficult to dissolve again.

[9] = Log P (general properties)
[10] = Phosphate buffer: tonicity by freezing point depression; assay type: physicochemical
Description: as §6, §7, §8

[11] = Initial tests with maleic acid buffering: dissolution behaviour and pH; assay type: physicochemical
Description: Due to its ability to act as a buffer in the acidic to neutral range, a 0.02 M aqueous maleic acid solution was proposed as the base formulation. The aim was to investigate the dissolving capacity for R-ketamine in the concentration range of 60, 80 and 100 mg/ml at pH 5.5 and 5.7 (after the feasibility test with a pH of 5.8 had to be considered as failed) and the stability of the formulations in a study for four weeks.
In an initial feasibility test, the dissolution behaviour of R-ketamine was investigated in the presence of maleic acid. Pure water was used as a comparison. In an aqueous solution of 60 mg/ml R-ketamine without buffering, a pH of 4.65 was obtained. If the same amount of R-ketamine was dissolved in a 0.02 M maleic acid buffer adjusted to pH 5.75, the pH decreased to a value of 5.38.

[12] = Cyclodextrin inclusion: tonicity by freezing point depression; assay type: physicochemical
Description: as §4, §5

[13] = Solubility profile in solvents
[14] = Hygroscopicity, DVS experiments; assay type: physicochemical; conditions: between 50% RH to 90% RH in DVS experiments
[15] = Cosolvent screening: tonicity by freezing point depression; assay type: physicochemical
Description: as §1, §2, §3

[16] = Cyclodextrin (HPB) 20 %, pH 4.5
[17] = Cyclodextrin (HPB) 20 %, pH 7.5
[18] = phosphate buffer pH 5.8, nominal 60 mg/ml (52.2 mg/ml free base)
[19] = phosphate buffer pH 5.8, nominal 70 mg/ml (60.9 mg/ml free base)
[20] = 60 mg/ml in 20 mM citrate buffer, pH 5.4
[21] = 60 mg/ml in 20 mM citrate buffer, pH 5.6
[22] = 60 mg/ml in 20 mM citrate buffer, pH 5.8
[23] = 70 mg/ml (60.9 mg/ml free base) in citrate buffer, pH 5.8

CN[C@@]1(c2ccccc2Cl)CCCCC1=O [R-ketamine, (2R)-2-(2-chlorophenyl)-2-(methylamino)cyclohexan-1-one]
shelf life / precipitation on storage [1]: fine crystalline precipitate was observed; also recorded: precipitation | Assay ([2]; Glycerol 20%, pH 6.0): 19.1 mg/mL | Assay ([2]; Glycerol 50%, pH 6.0): 20.2 mg/mL | Assay ([2]; PEG 20%, pH 6.0): 19.9 mg/mL | Assay ([2]; PEG 50%, pH 6.0): 21.6 mg/mL | Assay ([2]; Propylene glycol 20%, pH 6.0): 24.5 mg/mL | Assay ([2]; Propylene glycol 50%, pH 6.0): 46.5 mg/mL | Assay ([2]; Tween 5%, pH 5.0): 89.2 mg/mL | Assay ([2]; Tween 5%, pH 6.0): 18.8 mg/mL | Assay ([2]; Water for injection, pH 5.0, nominal 100 mg/ml (86.96 mg/ml free base)): 88.6 mg/mL | Assay ([2]; Water for injection, pH 6.0): 19.7 mg/mL | Assay ([3]; Cyclodextrin (HPB) 0 %, pH 4.5): 88.9 mg/mL | Assay ([3]; Cyclodextrin (HPB) 0 %, pH 7.5): 0.9 mg/mL | Assay ([3]; Cyclodextrin (HPB) 10 %, pH 6): 26.8 mg/mL and 29.6 mg/mL | Assay [3, 16]: 93.9 mg/mL | Assay [3, 17]: 11.1 mg/mL | pKa (pKa (general properties)): 7.5 | Assay [4, 18]: 51.2 mg/ml free base | Assay [4, 19]: 59.7 mg/ml free base | visible precipitation after pH adjustment and filtration ([4]; phosphate buffer pH 5.8, nominal 60 and 70 mg/ml): no visible precipitation | decrease of pH over the study, average [5]: 0.2 pH units | four-week stability assay [5]: satisfactory stability | Assay ([6]; 60 mg/ml (52.2 mg/ml free base) in 20 mM citrate buffer, pH 5.2): 46.2 mg/mL | Assay [6, 20]: 46.1 mg/mL | Assay [6, 21]: 46.4 mg/mL | Assay [6, 22]: 47.2 mg/mL | visual precipitation ([6]; 60 mg/ml in citrate buffer, pH 5.2-5.8): no precipitation could be detected visually | content found ([6]; 60 mg/ml in citrate buffer, range of pH 5.2-5.8): about 46.5 mg/ml | Assay [6, 23]: 46.2 mg/mL | precipitation after pH adjustment [6, 23]: precipitation was observed | Tonicity ([7]; 60 mg/ml in 20 mM citrate buffer, pH 5.2): 534 mOsmol/kg | Tonicity [7, 20]: 540 mOsmol/kg | Tonicity [7, 21]: 546 mOsmol/kg | Tonicity [7, 22]: 561 mOsmol/kg | Tonicity ([7]; 70 mg/ml in citrate buffer, pH 5.8): 556 mOsmol/kg | pH from which the free base precipitates ([8]; in water, without suitable excipients, Henderson-Hasselbalch, FIG. 1): ≥ 5.5 | pH above which precipitation of the free base occurs ([8]; observed in the experiments): > 5.9 and 5.7-5.9 | API that can be dissolved ([8]; range between pH 5 and 6): 60 mg/mL | logP [9]: 2.18 | Tonicity [10, 18]: 476 mOsmol/kg | Tonicity [10, 19]: 545 mOsmol/kg | pH after dissolving ([11]; 60 mg/ml in 0.02 M maleic acid buffer adjusted to pH 5.75): 5.38 | pH obtained ([11]; aqueous solution of 60 mg/ml R-ketamine without buffering): 4.65 | precipitation on raising the pH to 5.8 ([11]; maleic acid buffer, pH raised to 5.8 with 0.15 M NaOH): without precipitation | Tonicity ([12]; Cyclodextrin (HPB) 0 %, pH 4.5): 644 mOsmol | Tonicity ([12]; Cyclodextrin (HPB) 0 %, pH 7.5): 522 mOsmol | Tonicity ([12]; Cyclodextrin (HPB) 10 %, pH 6): 680 mOsmol and 683 mOsmol | Tonicity [12, 16]: 638 mOsmol | Tonicity [12, 17]: 546 mOsmol | Solubility Classification (EP) ([13]; 1-propanol): Sparingly soluble | solubility ([13]; 1-propanol, organic solvent or mixture): 13 to 15 mg/mL (≈ 54.7 to 63.1 mM) | Solubility Classification (EP) ([13]; 2-propanol): Slightly soluble | solubility ([13]; 2-propanol, organic solvent or mixture): ~4 mg/mL (≈ 16.8 mM) | Solubility Classification (EP) ([13]; Acetone, acetonitrile, anisole, ethyl acetate, heptane, methyl ethyl ketone, methyl iso-butyl ketone, tetrahydrofuran, methyl tert-butyl ether): Very slightly soluble | Solubility Classification (EP) ([13]; DMSO, Ethanol): Sparingly soluble | solubility ([13]; DMSO, ethanol, organic solvent or mixture): 20 to 30 mg/mL (≈ 84.1 to 126 mM) | Solubility Classification (EP) ([13]; Methanol): Soluble | Solubility Classification (EP) ([13]; Water): Freely soluble | solubility ([13]; methanol, organic solvent or mixture): 50 to 100 mg/mL (≈ 210 to 421 mM) | solubility ([13]; organic solvent or mixture): < 1 mg/mL | solubility ([13]; water): > 140 mg/mL | solubility ([13]; water, pH 4, water): > 140 mg/mL | Hygroscopicity [14]: Not hygroscopic, no moisture uptake | Tonicity ([15]; Glycerol 20%, pH 6.0): 1445 mOsmol | Tonicity ([15]; PEG 20%, pH 6.0): 695 mOsmol | Tonicity ([15]; Tween 5%, pH 5.0): 686 mOsmol | Tonicity ([15]; Tween 5%, pH 6.0): 602 mOsmol | Tonicity ([15]; Water for injection, pH 5.0): 651 mOsmol | Tonicity ([15]; Water for injection, pH 6.0): 568 mOsmol
